Patent US7897582B2, “Oligonucleotide compositions and methods for the modulation of the expression of B7 protein” (Isis Pharmaceuticals, Inc., priority 2003, dated 2011)
Strand notation (5' to 3'): a small letter for the sugar, then the base; units joined by * are phosphorothioate-linked, units joined directly phosphodiester-linked; [ ] holds rarer units or linkages, { } end groups; capitals alone tell only the bases. e = 2'-O-(2-methoxyethyl) (MOE); d = 2'-deoxy (DNA)

Experiments:
[1] = mouse, in vivo
Protocol: Antisense oligonucleotides (ASOs) were dissolved in saline and used to intratracheally dose mice every day, four times per day, from days 15-26 of the OVA sensitization and challenge protocol. Specifically, the mice were anesthetized with isofluorane and placed on a board with the front teeth hung from a line. The nose was covered and the animal's tongue was extended with forceps and […] of various doses of ASO, or an equivalent volume of saline (control) was placed at the back of the tongue until inhaled into the lung.

B7-2 = B7-2 expression in antigen presenting cells (blood monocytes with IL-4 and GM-CSF), flow cytometry; format: cell-based, human; conditions: FIG. 6
Protocol: The ability of ISIS 10373 to inhibit expression from the native B7-2 gene in antigen presenting cells (APCs) was evaluated as follows.
Monocytes were cultured and treated with oligonucleotides as follows. For dendritic cells, EDTA-treated blood was layered onto Polymorphprep™ (1.113 g/mL; Nycomed, Oslo, Norway) and sedimented at 500×g for 30 minutes at 20° C. Mononuclear cells were harvested from the interface. Cells were washed with PBS, with serum-free RPMI media (Moore et al., N.Y. J. Med., 1968, 68, 2054) and then with RPMI containing 5% fetal bovine serum (FBS). Monocytes were selected by adherence to plastic cell culture cell culture dishes for 1 h at 37° C. After adherence, cells were treated with oligonucleotides in serum-free RPMI containing Lipofectin™ (8 μg/mL). After 4 hours, the cells were washed. […] Cells were incubated for 48 hours, after which cell surface expression of various molecules was measured by flow cytometry.
(§1) Mononuclear cells isolated from fresh blood were treated with oligonucleotide in the presence of cationic lipid to promote cellular uptake. […] Expression of B7-2 protein was measured by flow cytometry according to the methods of Example 2. […]

ICAM-1 = ICAM-1 expression in antigen presenting cells, flow cytometry; format: cell-based, human
Protocol: (§2) Monocytes were cultured and treated with oligonucleotides as follows. For dendritic cells, EDTA-treated blood was layered onto Polymorphprep™ (1.113 g/mL; Nycomed, Oslo, Norway) and sedimented at 500×g for 30 minutes at 20° C. Mononuclear cells were harvested from the interface. Cells were washed with PBS, with serum-free RPMI media (Moore et al., N.Y. J. Med., 1968, 68, 2054) and then with RPMI containing 5% fetal bovine serum (FBS). Monocytes were selected by adherence to plastic cell culture cell culture dishes for 1 h at 37° C. After adherence, cells were treated with oligonucleotides in serum-free RPMI containing Lipofectin™ (8 μg/mL). After 4 hours, the cells were washed. Then RPMI containing 5% FBS and oligonucleotide was added to cells along with interleukin-4 (IL-4; R&D Systems, Minneapolis, Minn.) (66 ng/mL) and granulocyte-macrophage colony-stimulating factor (GM-CSF; R&D Systems, Minneapolis, Minn.) (66 ng/mL) to stimulate differentiation (Romani et al., J. Exp. Med., 1994, 180, 83, 1994). Cells were incubated for 48 hours, after which cell surface expression of various molecules was measured by flow cytometry.
as §1

CD4+ T cells = assay: T cell proliferation assay, [3H]thymidine incorporation, oligonucleotide-treated APCs plus CD4+ T cells; format: cell-based, human; conditions: APCs treated before cytokine induction; FIG. 7
Protocol: The ability of ISIS 2302 and ISIS 10373 to inhibit T cell proliferation was evaluated as follows. Monocytes treated with oligonucleotide and cytokines (as in Example 6) were used as antigen presenting cells in a T cell proliferation assay. The differentiated monocytes were combined with CD4+ T cells from a separate donor. After 48 hours, proliferation was measured by [^3H]thymidine incorporation.
For T cell proliferation assays, cells were isolated from EDTA-treated whole blood as described above, except that a faster migrating band containing the lymphocytes was harvested from just below the interface. Cells were washed as described in Example 6 after which erythrocytes were removed by NH4Cl lysis. T cells were purified using a T cell enrichment column (R&D Systems, Minneapolis, Minn.) essentially according to the manufacturer's directions. CD4+ T cells were further enriched from the entire T cell population by depletion of CD8+ cells with anti-CD8-conjugated magnetic beads (AMAC, Inc., Westbrook, Me.) according to the manufacturer's directions. T cells were determined to be >80% CD4+ by flow cytometry using Cy-chrome-conjugated anti-CD4 mAb (PharMingen, San Diego, Calif.).
Antigen presenting cells (APCs) were isolated as described in Example 6 and treated with mitomycin C (25 μg/mL) for 1 hour then washed 3 times with PBS. APCs (10^5 cells) were then combined with 4×10^4 CD4+ T cells in 350 μL of culture media. Where indicated, purified CD3 mAb was also added at a concentration of 1 μg/mL. During the last 6 hours of the 48 hour incubation period, proliferation was measured by determining uptake of 1.5 μCi of [^3H]-thymidine per well. The cells were harvested onto filters and the radioactivity measured by scintillation counting.

human B7-1 = assay: Cell surface expression of B7-1 in pcB7-1-transfected COS-7 cells by flow cytometry; format: cell-based; conditions: FIG. 5
Protocol: The ability of oligonucleotides to inhibit B7-1 expression was evaluated by measuring the cell surface expression of B7-1 in transfected COS-7 cells by flow cytometry.
A T-175 flask was seeded at 75% confluency with COS-7 cells (ATCC accession No. CRL 1651). The plasmid pcB7-1 was introduced into cells by standard calcium phosphate transfection. Following a 4 hour transfection, the cells were trypsinized and seeded in 12-well dishes at 80% confluency. The cells were allowed to adhere to the plastic for 1 hour and were then washed with phosphate-buffered saline (PBS). OptiMEM™ (GIBCO-BRL, Gaithersburg, Md.) medium was added along with 15 μg/mL of Lipofectin™ (GIBCO-BRL, Gaithersburg, Md.) and oligonucleotide at the indicated concentrations. After four additional hours, the cells were washed with phosphate buffered saline (PBS) and incubated with fresh oligonucleotide at the same concentration in DMEM (Dulbecco et al., Virol., 1959, 8, 396; Smith et al., Virol., 1960, 12, 185) with 10% fetal calf sera (FCS).
In order to monitor the effects of oligonucleotides on cell surface expression of B7-1, treated COS-7 cells were harvested by brief trypsinization 24-48 hours after oligonucleotide treatment. The cells were washed with PBS, then resuspended in 100 μL of staining buffer (PBS, 0.2% BSA, 0.1% azide) with 5 μL conjugated anti-B7-1-antibody (i.e., anti-hCD80-FITC, Ancell, Bayport, Minn.; FITC: fluorescein isothiocyanate). The cells were stained for 30 minutes at 4° C., washed with PBS, resuspended in 300 μL containing 0.5% paraformaldehyde. Cells were harvested and the fluorescence profiles were determined using a flow cytometer.
B7 antisense oligonucleotides were tested for their effect on cell surface expression of both B7-1 and B7-2. Cell surface expression was measured as described in Example 1. Experiments were done for both human B7 and mouse B7.
The oligonucleotides were screened as described in Example 2 except that the concentration of oligonucleotide was varied as shown in Table 18.

human B7-2 = assay: Cell surface expression of B7-2 in transfected COS-7 cells by flow cytometry; format: cell-based
Outline: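 COS-7 cells transfected with B7-2 plasmid (calcium phosphate), then treated with antisense oligonucleotides with 15 μg/mL Lipofectin for 4 h, followed by oligonucleotide in DMEM/10% FCS. After 24-48 h, cells stained with FITC- or PE-conjugated anti-CD86 for 30 min at 4 °C and analysed by flow cytometry.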

B7-1 = B7-1 cell surface expression in antigen presenting cells, flow cytometry; format: cell-based, human
Protocol: as §2, §1

HLA-DR = HLA-DR cell surface expression in antigen presenting cells, flow cytometry; format: cell-based, human
Protocol: as §2, §1

CD3 = CD3 cell surface expression in antigen presenting cells, flow cytometry; format: cell-based, human
Protocol: as §2, §1

[2] = tested on: ovalbumin-challenged Balb/c mice; assay: Ovalbumin-induced mouse model of allergic inflammation (Penh, BAL cells, histology, cytokines, spleen); format: in vivo
Protocol: In the mouse model of allergic inflammation, mice were sensitized and challenged with aerosolized chicken ovalbumin (OVA). Airway responsiveness was assessed by inducing airflow obstruction with a methacholine aerosol using a noninvasive method. This methodology utilized unrestrained conscious mice that are placed into the main chamber of a plthysmograph (Buxco Electronics, Inc., Troy, N.Y.). Pressure differences between this chamber and a reference chamber were used to extrapolate minute volume, breathing frequency and enhanced pause (Penh). Penh is a dimensionless parameter that is a function of total pulmonary airflow in mice (i.e., the sum of the airflow in the upper and lower respiratory tracts) during the respiratory cycle of the animal. The lower the Penh, the greater the airflow. This parameter closely correlates with lung resistance as measured by traditional invasive techniques using ventilated animals (Hamelmann . . . Gelfand, 1997). Dose-response data were plotted as raw Penh values to increasing concentrations of methacholine. […]
Female Balb/c mice (Charles Rivers Laboratory, Taconic Farms, N.Y.) were maintained in micro-isolator cages housed in a specific pathogen-free (SPF) facility. […] Animals were analyzed about 24 hours following the last nebulization using the Buxco electronics Biosystem. Lung function (Penh), lung histology (cell infiltration and mucus production), target mRNA reduction in the lung, inflammation (BAL cell type & number, cytokine levels), spleen weight and serum AST/ALT were determined. […]
Cytospins of cells recovered from BAL fluid were prepared using a Shandon Cytospin 3 (Shandon Scientific LTD, Cheshire, England). […] Total cell counts were quantified by hemocytometer and, together with the percent type by differential, were used to calculate specific cell number.
Before resection, lungs were inflated with 0.5 ml of 10% phosphate-buffered formalin and fixed overnight at 4° C. […] Parasagittal sections were analyzed by bright-field microscopy. Mucus cell content was assessed as the airway epithelium staining with PAS. […]

B7.2 mRNA = B7.2 mRNA in lung and draining lymph nodes of ovalbumin-challenged mice, quantitative RT-PCR; format: in vivo, mouse
Protocol: (§3) RNA was harvested from experimental lungs removed on day 28 of the OVA protocol. B7.2 and B7.1 levels were measured by quantitative RT-PCR using the Applied Biosystems PRISM 7700 Sequence Detection System (Applied Biosystems, Foster City, Calif.). Primers and probes used for these studies were synthesized by Operon Technologies (Alameda, Calif.).

B7.1 mRNA = B7.1 mRNA in lung and draining lymph nodes of ovalbumin-challenged mice, quantitative RT-PCR; format: in vivo, mouse; conditions: lung tissue and draining lymph nodes of allergen-challenged mice
Protocol: as §3

B7-1 mRNA = assay: Mouse B7-1 target mRNA reduction in L-929 fibroblasts (RT-PCR); format: cell-based; conditions: 100 nM
Protocol: Both of these oligonucleotides are phosphorothioates with 2′-MOE modifications on nucleotides 1-5 and 16-20, and 2′-deoxy at positions 6-15. These ASOs were identified by mouse-targeted ASO screening by target mRNA reduction in mouse cell lines. For B7-2, 19 mouse-targeted ASOs were screened by target mRNA reduction (Northern analysis) in IC-21 macrophages. Dose-response confirmation led to selection of ISIS 121874 (>70% reduction at 25 nM). For B7-1, 22 mouse-targeted ASOs were screened by target mRNA reduction (RT-PCR) in L-929 fibroblasts. Dose-response confirmation led to selection of ISIS 121844 (>70% reduction at 100 nM). No cross hybridization was predicted, and no cross-target reduction was detected in transfected cells.

Substance: 5′-TCCGTCATCGCTCCTCAGGG-3′ [ISIS 13920]
- deposition pattern in the lung [1]: taken up throughout the lung, most strongly by antigen presenting cells (APCs) and alveolar epithelium

Substance: ISIS 2302: antisense oligonucleotide targeted to ICAM-1, an inhibitor of ICAM-1 expression; SEQ ID NO: 17 (antisense GCCCAAGCTGGCATCCGTCA; listed as DNA, chemistry not given here) [reference compound]
- effect on B7-2 expression (B7-2): no effect
- IC50 (ICAM-1; antigen presenting cells, FIG. 6, read-out: IC50, ICAM-1 levels): ~250 nM
- T cell proliferative response (CD4+ T cells): blocked

Substance: ISIS 10373: phosphorothioate 20-mer to human B7-2 mRNA 0011-0030; 5′-UTR; SEQ ID NO: 16 (antisense dT*dG*dC*dG*dA*dG*dC*dT*dC*dC*dC*dC*dG*dT*dA*dC*dC*dT*dC*dC)
- effect on B7-1 expression (specificity) (human B7-1): little or no effect
- effect on B7-2 expression (specificity) (human B7-2; FIG. 5): inhibits B7-2 expression
- IC50 (B7-2): ~250 nM
- effect on ICAM-1 expression (ICAM-1; dose of 1 μM): only a slight effect
- cell surface expression of B7-1 (B7-1): did not affect
- cell surface expression of HLA-DR (HLA-DR): did not affect
- cell surface expression of CD3 (CD3): did not affect
- T cell proliferative response (CD4+ T cells): blocked

Substance: ISIS 10721: scrambled # 10373; SEQ ID NO: 82 (antisense dC*dG*dA*dC*dA*dG*dC*dT*dC*dC*dT*dG*dC*dG*dC*dT*dC*dC*dT*dC) [reference compound]
- inhibitory activity on B7-2 cell surface expression (human B7-2; 200 nM, FIG. 3): no inhibitory activity
- T cell proliferative response (CD4+ T cells): insignificant effect

Substance: ISIS 121844: antisense oligonucleotide targeted to mouse B7.1; SEQ ID NO: 286; phosphorothioate, 2′-MOE on nucleotides 1-5 and 16-20 (antisense GCTCAGCCTTTCCACTTCAG; sugars from the 5' end e5 d10 e5, all phosphorothioate, methylation of C not given here)
- allergen-induced airway eosinophilia ([2]; BAL fluid): reduced
- airway response to methacholine (Penh response) ([2]; intratracheal ASO, days 15-26): no effect
- PMN numbers in BAL fluid ([2]; mouse, in vivo): reduced
- reduction of B7.2 mRNA in the lung (B7.2 mRNA; lung): 80%
- B7.2 mRNA (B7.2 mRNA; lung tissue and draining lymph nodes of allergen-challenged mice): reduced
- B7.1 mRNA (B7.1 mRNA): reduced
- target mRNA reduction (B7-1 mRNA): > 70%
